# From US20250093329A1, “SCREENING OF COMPOUNDS” (THE UNIVERSITY OF TULSA, priority 2022, published 2025)
# How the values were obtained:
# Format in all cases: cell-based
# each cell line tested = assay: ATP levels by CellTiter-Glo, all cell lines of Table 1 taken together; conditions: 100 μM compound with 2-DG, Table 1 cell lines
# From the text: A wide variety of ATP luminescing detection reagents are available commercially. So long as the reagent produces a luminescence in the presence of ATP, the reagent will be suitable for use in the present method. Suitable reagents include but are not limited to any ATP dependent luciferase such as but not limited to firefly luciferase, other modified luciferase based reagents, i.e. luciferase derivatives. According to the rapid method for determining the anti-cancer activity of a compound, a sample of living cells is distributed across a number of testing wells. Typically, 96-well plates are used; however, the number of wells is not critical to the current method. When using a 96-well plate the number of living cells will commonly be about 20,000. […] The sample wells contain a cell growth medium to promote cell health and growth and an additive to prevent bacterial contamination of the wells. One common example of the cell growth medium is DMEM with 10% FBS as described above. One example of the additive to prevent bacterial contamination is a solution of penicillin G and streptomycin referred to commonly as Pen-Strep. The Pen-Strep solution typically contains 5000 units of penicillin G and 5000 micrograms of streptomycin. Thus, the rapid determination of anti-cancer compounds can be carried out using the following method. • The desired number of cells are distributed in a 96-well plate containing 100 μL DMEM plus 10% FBS with optional Pen-Strep. • After 24 hours, cells are treated with the compound of interest or a 5% solution of dimethyl sulfoxide (DMSO) in water as a control. • The time period for exposure to the compound of interest and the DMSO control will vary depending on the luminescing detection reagent. However, when using a commercially available reagent such as resazurin (CellTiter Blue commercially available from Promega) or luciferase or a luciferase derivative (CellTiter Glo commercially available from Promega) the time period can be readily determined with reference to literature from the commercial source. Other luminescing detection agents can also be used with minimal experimentation to determine the desired compound exposure time. • Upon completion of the time period for exposure to the compound of interest or the DMSO, 10 μL of the luminescing detection reagent is added and the cells are lysed by a detergent added along with the luminescing detection reagent. • When the reagent is resazurin, as found in CellTiter-Blue the time period for exposure to the compound of interest and the DMSO will be about 24 hours. • When the reagent is luciferase or a luciferase derivative as found in CellTiter-Glo the time period for exposure to the compound of interest and the DMSO will be about 30 minutes to four hours. • The luminescing detection reagent is added over a period of time. • When using resazurin, the time period for the addition of the 10 μl volume takes place over a period of about one to four hours. • When using luciferase or a luciferase derivative, the time period is about 3 minutes to about 7 minutes, typically about 5 minutes. • During the time period of addition of the luminescing detection reagent the resulting luminescence is measured using conventional methods and devices. […] If the compound of interest deactivates the cell, then the cell produces less or no ATP. As a result, the cells in the well treated with the compound of interest will have a lower luminescence value as compared to the cells in wells treated with DMSO. • The value for the cells treated with the compound of interest is reported as a “percent of control” (POC) value. The determination of POC is calculated by dividing the averaged response from duplicate wells containing the cells as treated with the compound of interest by the average response of duplicate control wells which contain only cells and DMSO (in other words, a blank control experiment). […]
# NCI-H196 = assay: Cytotoxicity testing, CellTiter-Blue assay, 24 hour (FIG. 3); conditions: 100 μM, 24 hour compound incubation
# Method: (§1) The cytotoxicity tests were carried out in the following manner. Living cells are known to convert resazurin to the fluorescent compound resorufin. Test systems which rely upon this reaction are commercially available. One such test is known at the Cell Titer Blue Cell Viability test assay from Promega. Cell cultures for each of the identified cancer lines were obtained from ATCC and maintained in Dulbecco's Modified Eagle Medium (DMEM) supplemented with 10% fetal bovine serum (FBS) and pen/strep. As known to those skilled in the art, DMEM typically includes the components identified below.
# (§2) The test method provides for incubating the cell cultures at temperatures which correspond to the range of body temperatures experienced by the patient from which the cancer cells were obtained. Typically, incubation temperatures will be between the temperatures of 36.1° C. and 37.2° C. In most cases incubation will occur at 37° C. Additionally, the cell cultures are kept under an atmosphere which mimics cell conditions of the tumor within the patient's body. In most cases, the tumor microenvironment (TME) is characterized by hypoxia (low oxygen) and may also be characterized by hypercapnia (increased CO2). Hypercapnia results from decreased blood flow which limits CO2 elimination. Restricted CO2 elimination leads to increased HCO3^− conversion to CO2 in order to neutralize lactate as altered tumor cell metabolism produces more CO2 than normal. Normal tissue averages about 5% oxygen with oxygen ranges from about 3% to 7.4%. […] In the case of CO2, normocapnic is around 5% CO2, while hypercapnic can rise to 10% CO2. Therefore, to mimic the environment of the tumor the method utilizes an incubator designed to provide the optimal gaseous environment corresponding to that of the tumor. Thus, the incubator will be capable of maintaining an atmosphere having an oxygen content in the range of […] and a CO2 in the range of 1% to 10%.
# (§3) After allowing for proliferation of the cells, the cells were distributed across a plurality of test wells containing from 100 μL DMEM plus 10% FBS and allowed to attach to the surface of the test wells. Typically, the time for attachment will require about 12 hours to about 18 hours. […] Following treatment of the cells with the N-benzyl sulfonamide or control, the toxicity of the compound to the cells will be determined by addition of a luminescing agent. […] Subsequently, the fluorescence of resazurin is measured by excitation at 560 nm and recording the emission at 590 nm within an instrument configured to measure fluorescence intensity. Two commercially available systems are the BioTek Cytation 5 plate reader and the Promega Glomax Multi+detection system. […]
# H293 = assay: as above; conditions: 100 μM, 24 hour compound incubation
# Method: as §1, §2, §3
# [1] = system: HEK293 (kidney cancer) cells; assay: Traditional versus rapid screening (FIG. 15); conditions: DMEM, CellTiter-Glo 1 hr, with or without 2DG, versus CellTiter-Blue/CellTiter-Glo 24 hr
# From the text: FIG. 15 provides a comparison of traditional cytotoxicity testing the improved testing method described herein using HEK293 cells (kidney cancer), DMEM media, and the library sulfonamide compounds 1-30 found in FIGS. 1A-1C.
# When used to identify compounds for specific patients, the following steps will be carried out: • Individualized patient cells will be acquired from a tumor biopsy and cultured/grown in patient blood serum and/or plasma. (In most instances the cells will be obtained using a needle biopsy; i.e. fine needle aspiration biopsy. Optionally, the cells may be obtained from resected tumor (i.e. excisional biopsy, which is an attempt at complete tumor removal), and/or a core biopsy; (i.e. removal of part of the tumor). Alternatively, cells may be obtained from blood draw samples, which would contain leukemia, lymphoma and myeloma cells.) • The cells (as few as 100 cells per experiment) will be screened directly in patient blood serum and/or plasma in the absence or presence of glycolysis inhibitor, 2-deoxyglucose (2DG) using a rapid (1-2 hr) screening assay (CellTiter-Glo, or “CTG”). • NOTE: while the discussion herein focuses on CTG, other assays suitable for measuring changes in ATP levels will perform equally as well. […] DMEM contains glucose, but L15 has substituted glucose with galactose. […]
Compound,"effectiveness across the cell lines, with 2-DG (each cell line tested)",also measured
"Cc1ccc(S(=O)(=O)NCc2c[nH]c3ccccc23)cc1 [Compound 1, N-[(1H-indol-3-yl)methyl]-4-methylbenzenesulfonamide]",little effect,
"O=S(=O)(NCc1c[nH]c2ccccc12)c1ccccc1 [Compound 3, N-[(1H-indol-3-yl)methyl]benzenesulfonamide]",little effect,
"CC(=O)n1cc(CNS(=O)(=O)c2ccc(Cl)cc2)c2ccccc21 [Compound 4, N-[(1-acetyl-1H-indole-3-yl)methyl]-4-chlorobenzenesulfonamide]",little effect,
"Cc1ccc(S(=O)(=O)NCc2c[nH]c3cccc(Br)c23)cc1 [Compound 5, N-[(4-bromo-1H-indol-3-yl)methyl]-4-methylbenzenesulfonamide]",,"effectiveness, percent reduction in cell viability (FIG. 3) (NCI-H196): effectiveness; effectiveness, percent reduction in cell viability (FIG. 3) (H293): effective; sensitivity of rapid assays versus traditional methods (FIG. 15) [1]: enhanced sensitivity"
"Cc1cccc2c(CNS(=O)(=O)c3ccccc3)c[nH]c12 [Compound 6, N-[(7-methyl-1H-indol-3-yl)methyl]benzenesulfonamide]",,"effectiveness, percent reduction in cell viability (FIG. 3) (H293): effective"
"Cc1ccc(S(=O)(=O)NCc2ccc3ncccc3c2)cc1 [Compound 22, 4-methyl-N-(quinolin-6-ylmethyl)benzenesulfonamide]",little effect,
"COc1ccc(S(=O)(=O)NCc2c[nH]c3ccccc23)cc1 [Compound 23, N-(1H-indol-3-ylmethyl)-4-methoxybenzenesulfonamide]",little effect,
